Data: publication PMC7539012, “Hyperphosphorylated tau aggregation and cytotoxicity modulators screen identified prescription drugs linked to Alzheimer's disease and cognitive functions” (Scientific Reports, 2020)
Where a name gives a salt, the structure may show the parent alone.

Tested on: T1, 1N4R p-tau
T1 construct: made in house; host or cells: E. coli (PIMAX system)
Experiment: p-tau aggregation modulator screen of 1280-compound library (ThS fluorescence net change over 16 h);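 note: 30 µM compound with 6 µM p-tau over 16 h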
Format: biochemical
Conditions: not given

Compound | ThS net change
CN(C)C/C=C(\c1ccc(Br)cc1)c1cccnc1.Cl.Cl.O [Zimelidine dihydrochloride monohydrate] | 325
COc1ccc2c3c1O[C@H]1C[C@@H](O)C=C[C@@]31CCN(C)C2 [Galanthamine hydrobromide] | 448
Cc1ccc(Cl)c(Nc2ccccc2C(=O)[O-])c1Cl.O.[Na+] | 436
N[C@@H]1C[C@H]1c1ccccc1 [Tranylcypromine hydrochloride] | 377
COc1cccc(N(C)C(=S)Oc2ccc3c(c2)CCCC3)n1 [Liranaftate] | 435
COc1ccc([C@@H]2Sc3ccccc3N(CCN(C)C)C(=O)[C@@H]2OC(C)=O)cc1 [Diltiazem hydrochloride] | 308
CC(C)c1cccc(C(C)C)c1O [Propofol] | 400
CC(N)C(O)c1ccccc1 (centres unmarked) [Phenylpropanolamine hydrochloride] | 395
CCc1c2c(nc3ccc(OC(=O)N4CCC(N5CCCCC5)CC4)cc13)-c1cc3c(c(=O)n1C2)COC(=O)[C@]3(O)CC.Cl.O.O.O [Irinotecan hydrochloride trihydrate] | 281
CC[C@]12CCCN3CCc4c(n(c5ccccc45)C(=O)C1)[C@@H]32 [Eburnamonine (-)] | 379
CN1[C@@H]2CC[C@H]1C[C@@H](OC(=O)C(CO)c1ccccc1)C2 (some centres unmarked) [Atropine sulfate monohydrate] | 397
CN1[C@@H]2C[C@@H](OC(=O)[C@H](CO)c3ccccc3)C[C@H]1[C@@H]1O[C@@H]12.Cl [Scopolamine hydrochloride] | 389

Same assay, conditions: 1280-compound library screen; ThS fluorescence net change over 16 h

Compound | ThS net change
O=C(NCC(O)CO)c1c(I)c(C(=O)NCC(O)CO)c(I)c(N(CCO)C(=O)CO)c1I (centres unmarked) [Ioversol] | 409
C#C[C@]1(O)CC[C@H]2[C@@H]3CCc4cc(OC)ccc4[C@H]3CC[C@@]21C [Ethynylestradiol 3-methyl ether] | 406
Nc1c2c(nc3ccccc13)CCCC2 [Tacrine hydrochloride] | 405
Cl.Cl.Cl.Cl.Cl.NCCNCCNCCNCCN | 394
CC1CC(OC(=O)C(O)c2ccccc2)CC(C)(C)N1C (centres unmarked) [Eucatropine hydrochloride] | 387
Nc1nc(=O)c2nc(CNc3ccc(C(=O)N[C@@H](CCC(=O)O)C(=O)O)cc3)cnc2[nH]1 [Folic acid] | 398
Cl.c1cnc(N2CCN(Cc3ccc4c(c3)OCO4)CC2)nc1 [Piribedil hydrochloride] | 392
CC(Oc1c(Cl)cccc1Cl)C1=NCCN1 (centres unmarked) [Lofexidine] | 408
N[C@@H]1CON=C1O [D-cycloserine] | 405
NC1CONC1=O (stereo in doubt) [(S)-(-)-Cycloserine] | 391
Cc1onc(-c2ccccc2Cl)c1C(=O)N[C@@H]1C(=O)N2[C@@H]1SC(C)(C)[C@@H]2C(=O)[O-].[Na+] [Cloxacillin sodium salt] | 380
CCOC(=O)[C@@](C)(N)Cc1ccc(O)c(O)c1 [Methyldopate hydrochloride] | 385
N=C(N)NC(=O)c1nc(Cl)c(N)nc1N [Amiloride hydrochloride dihydrate] | 401
CS(=O)(=O)c1ccc(C2=C(c3ccccc3)C(=O)OC2)cc1 [Rofecoxib] | 396
CCCCNC(=O)NS(=O)(=O)c1ccc(C)cc1 [Tolbutamide] | 392
NCCc1ccc(O)c(O)c1 [Dopamine hydrochloride] | 404
CC(C)NCC(O)c1ccc(NS(C)(=O)=O)cc1 (centres unmarked) [Sotalol hydrochloride] | 404
CCCC[N+]1(C)[C@@H]2C[C@@H](OC(=O)[C@H](CO)c3ccccc3)C[C@H]1[C@@H]1O[C@@H]12.[Br-] (some centres unmarked) [Butylscopolammonium (n-) bromide] | 388
COc1ccc(C(=O)c2ccccc2)c(O)c1 [Oxybenzone] | 383

Same assay, conditions: 1280-compound library screen; […]

Compound | ThS net change
CNC(=O)Oc1ccc2c(c1)[C@]1(C)CCN(C)[C@@H]1N2C [Eserine hemisulfate salt] | 395
CC(=O)O[C@H]1C[C@@H]2CC[C@@H]3[C@H](CC[C@@]4(C)[C@H]3C[C@H]([N+]3(C)CCCCC3)[C@@H]4OC(C)=O)[C@@]2(C)C[C@@H]1N1CCCCC1 [Vecuronium bromide] | 382
CCOc1ccccc1O[C@@H](c1ccccc1)[C@H]1CNCCO1.CS(=O)(=O)O [Reboxetine mesylate] | 386

Same assay, conditions: library screen, ThS fluorescence net change over 16 h with p-tau

Compound | ThS net change
CN1CCCN=C1/C=C/c1cccc(O)c1.CN1CCCN=C1/C=C/c1cccc(O)c1.O=C(O)c1cc2ccccc2c(Cc2c(O)c(C(=O)O)cc3ccccc23)c1O [Oxantel pamoate] | 208
COc1ccc(-c2cc(=O)c3c(O)cc(O[C@@H]4O[C@H](CO[C@@H]5O[C@@H](C)[C@H](O)[C@@H](O)[C@H]5O)[C@@H](O)[C@H](O)[C@H]4O)cc3o2)cc1O [Diosmin] | 211
COc1cc(C(=O)OCCCN2CCCN(CCCOC(=O)c3cc(OC)c(OC)c(OC)c3)CC2)cc(OC)c1OC.Cl.Cl [Dilazep dihydrochloride] | 286

Same assay, conditions: p-tau aggregation modulator screen of 1280-compound library; ThS fluorescence net change

Compound | ThS net change
CCOC(=O)OC(C)OC(=O)[C@@H]1N2C(=O)[C@@H](NC(=O)[C@H](N)c3ccccc3)[C@H]2SC1(C)C (some centres unmarked) [Bacampicillin hydrochloride] | 371
C[C@H](CCC(=O)O)[C@H]1CC[C@H]2[C@@H]3C(=O)C[C@@H]4CC(=O)CC[C@]4(C)[C@H]3CC(=O)[C@]12C [Dehydrocholic acid] | 331
CC(=O)OC(C)C[N+](C)(C)C (centres unmarked) [Methacholine chloride] | 370
COCCOC(=O)C1=C(C)NC(C)=C(C(=O)OC(C)C)C1c1cccc([N+](=O)[O-])c1 (centres unmarked) [Nimodipine] | 343
C[C@]12C=CC(=O)C=C1CC[C@@H]1[C@@H]2C(=O)C[C@@]2(C)[C@H]1CC[C@]2(O)C(=O)CO [Prednisone] | 366
CC(C(=O)O)c1ccc(-c2ccccc2)c(F)c1 (centres unmarked) [Flurbiprofen] | 377
Cc1cnc(C(=O)O)c[n+]1[O-] [Acipimox] | 369
Cl.Nc1nc2ccc(OC(F)(F)F)cc2s1 [Riluzole hydrochloride] | 353
O=C1C(CC[S+]([O-])c2ccccc2)C(=O)N(c2ccccc2)N1c1ccccc1 (centres unmarked) [Sulfinpyrazone] | 342
c1ccc2[nH]c(-c3cscn3)nc2c1 [Tiabendazole] | 355
CC(=O)Oc1ccccc1C(=O)Oc1ccccc1C(=O)O [Acetylsalicylsalicylic acid] | 363
C[C@H]1C[C@@H]2[C@H]([C@@H](O)C[C@@]3(C)[C@H]2CC[C@]3(O)C(=O)CO)[C@@]2(C)C=CC(=O)C=C12 [Methylprednisolone, 6-alpha] | 340
CCN1CCN(c2cc3c(cc2F)c(=O)c(C(=O)O)cn3C2CC2)CC1 [Enrofloxacin] | 364
NC(=O)c1cnccn1 [Pyrazinamide] | 370
O=C1NCC2(CCN(CCc3ccccc3)CC2)O1 [Fenspiride hydrochloride] | 362

Same assay, conditions: p-tau aggregation modulator screen of 1280-compound library; […]

Compound | ThS net change
COc1cc2nc(N3CCN(C(=O)c4ccco4)CC3)nc(N)c2cc1OC [Prazosin hydrochloride] | 367
Oc1ccc2c3c1O[C@H]1[C@@H](O)CC[C@@]4(O)[C@@H](C2)N(CC2CCC2)CC[C@]314 [Nalbuphine hydrochloride] | 371
NCC1(CC(=O)O)CCCCC1 [Gabapentin] | 363
CC(C)CC(N(C)C)C1(c2ccc(Cl)cc2)CCC1.Cl (centres unmarked) [Sibutramine HCl] | 347

Same assay, conditions: p-tau aggregation modulator screen of the compound library, ThS fluorescence net change

Compound | ThS net change
CC(=O)N[C@@H](CC(C)C)C(=O)O [N-Acetyl-L-leucine] | 417
CN[C@H]1CC[C@@H](c2ccc(Cl)c(Cl)c2)c2ccccc21 [Sertraline] | 428
O=c1[nH]c(=O)n(C2CCCO2)cc1F (centres unmarked) [Tegafur] | 448
CC(C)Oc1ccc2c(=O)c(-c3ccccc3)coc2c1 [Ipriflavone] | 429
N=C(N)NC(=O)Cc1c(Cl)cccc1Cl [Guanfacine hydrochloride] | 417
C=CC1=C(C(=O)O)N2C(=O)[C@@H](NC(=O)/C(=N\O)c3csc(N)n3)[C@H]2SC1 [Cefdinir] | 454
COC(=O)[C@@H]1[C@H]2C[C@H]3c4[nH]c5ccccc5c4CCN3C[C@@H]2CC[C@@H]1O [Yohimbine hydrochloride] | 418
CCc1nn(CCCN2CCN(c3cccc(Cl)c3)CC2)c(=O)n1CCOc1ccccc1 [Nefazodone HCl] | 454
C=C1CC[C@@]2(O)[C@H]3Cc4ccc(O)c5c4[C@@]2(CCN3CC2CC2)[C@H]1O5 [Nalmefene hydrochloride] | 418
C[C@@H]1C[C@H]2[C@@H]3C[C@H](F)C4=CC(=O)C=C[C@]4(C)[C@@]3(Cl)[C@@H](O)C[C@]2(C)[C@H]1C(=O)COC(=O)C(C)(C)C [Clocortolone pivalate] | 414
O=C1Nc2ccc(Cl)cc2[C@@](C#CC2CC2)(C(F)(F)F)O1 [Efavirenz] | 436
CCCCC1C(=O)N(c2ccccc2)N(c2ccccc2)C1=O [Phenylbutazone] | 413
CC[C@H](C)C(=O)O[C@H]1C[C@H](O)C=C2C=C[C@H](C)[C@H](CC[C@@H](O)C[C@@H](O)CC(=O)O)[C@H]21 [Pravastatin] | 467
C[C@]12CC[C@@H]3c4ccc(O)cc4CC[C@H]3[C@@H]1C[C@@H](O)[C@@H]2O [Estriol] | 440
O=C(Cn1ccnc1[N+](=O)[O-])NCCO [Etanidazole] | 461
CC(=O)Nc1nnc(S(N)(=O)=O)s1 [Acetazolamide] | 429
CC(C)(C#N)c1cc(Cn2cncn2)cc(C(C)(C)C#N)c1 [Anastrozole] | 484
CC(C)OC(=O)CCC/C=C\C[C@@H]1[C@@H](CC[C@@H](O)CCc2ccccc2)[C@H](O)C[C@@H]1O [Latanoprost] | 519
